Measurements as given in patent US20100130509A1, “NOVEL ANTIBIOTICS” (Nederlandse Organisatie voor toegepast-natuurwe- …, priority 2007, published 2010).
In brackets after ≈: the same amount, converted by molar mass. Like-named read-outs stand apart in the source and are kept apart here.

Tests used:
[1] = tested on: S. aureus strain ATCC 6538; assay: MIC test (CLSI M7-A6 dilution), S. aureus ATCC 6538; assay type: cell-based, Staphylococcus aureus; conditions: for MIC: Staphylococcus aureus
S. aureus TTC 03.0239 = assay: MIC test (CLSI M7-A6 dilution), S. aureus TTC 03.0239; assay type: cell-based; conditions: Staphylococcus aureus, TTC03.0239; single strain; TTC is internal collection number
Experimental: (§1) MIC test were performed according to standard methodology: M7-A6-“Methods for Dilution Antimicrobial Susceptibility Tests for Bacteria That Grow Aerobically”; Approved Standard, Sixth Edition Clinical and Laboratory Standards Institute 2005 (CLSI/formerly NCCLS).

Staphylococcus aureus = assay: Antibiotic activity towards Staphylococcus aureus (summary statements); assay type: cell-based; conditions: statement in words
S. epidermis = assay: MIC test (CLSI M7-A6 dilution), S. epidermis; assay type: cell-based; conditions: single strain
Experimental: as §1

S. aureus TTC 03.0236 = assay: MIC test (CLSI M7-A6 dilution), S. aureus TTC 03.0236; assay type: cell-based; conditions: Staphylococcus aureus, TTC03.0236; single strain; TTC is internal collection number
Experimental: as §1

[2] = ATCC6538, single strain, Table I, read-out: MIC S. aureus ATTC 6538
[3] = ATCC6538, Table II, Example 3, read-out: MIC S. aureus ATCC 6538

| Compound | antibiotic activity towards Staphylococcus aureus (Staphylococcus aureus) | efficacy as antimicrobial agents (Staphylococcus aureus) | MIC S. aureus ATCC 6538 ([1]; Table II, Example 3) | MIC [1, 3] | other results |
| --- | --- | --- | --- | --- | --- |
| COc1ccccc1NC(=O)C(Cl)(Cl)c1nnnn1-c1ccccc1OC [NewCo0053, N1-(2-methoxyphenyl)-2,2-dichloro-2-[1-(2-methoxyphenyl)-1H-1,2,3,4-tetraazol-5-yl]acetamide] | most notable | exceptionally good |  |  | MIC [1, 2]: 0.78 µg/mL (≈ 1.91 µM); MIC (S. aureus TTC 03.0239): 1.56 µg/mL (≈ 3.82 µM); MIC (S. epidermis): 0.78 µg/mL (≈ 1.91 µM); MIC (S. aureus TTC 03.0236): 0.78 µg/mL (≈ 1.91 µM) |
| Cc1ccccc1-n1nnnc1C(Cl)(Cl)C(=O)N1CCNCC1 [NewCo 0060, 2,2-dichloro-1-piprazin-1-yl-2-(1-o-tolyl-1H-tetrazol-5-yl)-ethanone] |  |  | 12.5 µg/mL (≈ 35.2 µM) |  |  |
| Cc1ccccc1-n1nnnc1C(Cl)(Cl)C(=O)Nc1ccccc1 [NewCo 0058, 2,2-dichloro-N-phenyl-2-(1-o-tolyl-1H-tetrazol-5-yl)-acetamide] | most notable | exceptionally good |  | 0.39 µg/mL (≈ 1.08 µM) |  |
| CN[C@H](CC(C)C)C(=O)N[C@H]1C(=O)N[C@@H](CC(N)=O)C(=O)N[C@H]2C(=O)N[C@H]3C(=O)N[C@H](C(=O)N[C@H](C(=O)O)c4cc(O)cc(O)c4-c4cc3ccc4O)[C@H](O)c3ccc(c(Cl)c3)Oc3cc2cc(c3O[C@@H]2O[C@H](CO)[C@@H](O)[C@H](O)[C@H]2O[C@H]2C[C@](C)(N)[C@H](O)[C@H](C)O2)Oc2ccc(cc2Cl)[C@H]1O [Vancomycin, reference compound] |  |  |  |  | MIC ([1]; ATCC6538, read-out: MIC S. aureus ATCC 6538): 0.78 µg/mL (≈ 0.538 µM) |
| Cc1ccccc1-n1nnnc1C(Cl)(Cl)C(N)=O [NewCo 0063, 2,2-dichloro-2-(1-o-tolyl-1H-tetrazol-5-yl)-acetamide] | most notable | exceptionally good |  | 1.56 µg/mL (≈ 5.45 µM) |  |
| Cc1ccccc1-n1nnnc1C(Cl)(Cl)C(=O)Nc1ccncc1 [NewCo 0061, 2,2-dichloro-N-pyridin-4-yl-2-(1-o-tolyl-1H-tetrazol-5-yl)-acetamide] | most notable | exceptionally good |  | 0.78 µg/mL (≈ 2.15 µM) |  |
| Cc1ccccc1-n1nnnc1C(Cl)(Cl)C(=O)NC1CCNCC1 [NewCo 0062, 2,2-dichloro-N-piperidin-4-yl-2-(1-O— tolyl-1H-tetrazol-5-yl)-acetamide] |  |  | 50 µg/mL (≈ 135 µM) |  |  |
| Cc1ccccc1-n1nnnc1C(Cl)(Cl)C(=O)NC(C)C [NewCo 0059, 2,2-dichloro-N-isopropyl-2-(1-o-tolyl-1H-tetrazol-5-yl)-acetamide] |  |  |  | 25 µg/mL (≈ 76.2 µM) |  |
| Cc1ccccc1-n1nnnc1C(Cl)(Cl)C(=O)N(C)C [NewCo 0064, 2-dichloro-N,N-dimethyl-2-(1-o-tolyl-1H-tetrazol-5-yl)-acetamide] |  |  | 100 µg/mL (≈ 318 µM) |  |  |
| O=C(Nc1ccccc1)C(Cl)(Cl)c1nnnn1-c1ccccc1 [NewCo0052, N1-phenyl-2,2-dichloro-2-(1-phenyl-1H-1,2,3,4-tetraazol-5-yl)acetamide] | most notable | exceptionally good |  |  | MIC [1, 2]: 1.56 µg/mL (≈ 4.48 µM); MIC (S. aureus TTC 03.0239): 1.56 µg/mL (≈ 4.48 µM); MIC (S. epidermis): 0.78 µg/mL (≈ 2.24 µM); MIC (S. aureus TTC 03.0236): 1.56 µg/mL (≈ 4.48 µM) |
